The IC50 is the concentration that gives 50% inhibition.

Chain of human GLUT9 (Q9NRM0 other isoform, or with tags, fused parts or gaps): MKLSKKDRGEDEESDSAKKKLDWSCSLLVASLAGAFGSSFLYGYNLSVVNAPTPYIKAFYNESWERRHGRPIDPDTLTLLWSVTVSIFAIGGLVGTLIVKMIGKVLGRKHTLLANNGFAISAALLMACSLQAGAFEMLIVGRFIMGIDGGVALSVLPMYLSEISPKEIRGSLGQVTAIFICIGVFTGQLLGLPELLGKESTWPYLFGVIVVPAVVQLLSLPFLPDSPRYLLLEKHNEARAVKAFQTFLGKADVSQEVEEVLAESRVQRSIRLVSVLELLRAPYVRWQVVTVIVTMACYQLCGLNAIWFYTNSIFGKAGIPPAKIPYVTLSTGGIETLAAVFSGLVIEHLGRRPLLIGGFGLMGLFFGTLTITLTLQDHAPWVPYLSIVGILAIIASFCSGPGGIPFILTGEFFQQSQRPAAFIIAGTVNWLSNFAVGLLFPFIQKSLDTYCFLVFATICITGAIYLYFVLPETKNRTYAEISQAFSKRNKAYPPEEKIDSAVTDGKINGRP

In the first experiment the target is human GLUT9 (Homo sapiens (Human), UniProt Q9NRM0). Description: Evaluation of human GLUT9 inhibitory activity ([14C] uric acid uptake in human GLUT9 expressing HEK293T cells transduced with Uricase/Hyper). The experiment is classed as cell-based. The settings on record: HEK-293T, 10 μM compound, human GLUT9 stably expressing HEK293T cells, read-out: GLUT9 inhibitory rate at 10 μM of compound. Here is the method:
A method for measuring GLUT9 inhibitory activity using human GLUT9 expressing cells transduced with Uricase/Hyper is shown hereinafter. GLUT9 inhibitory activity ([…]) of the test compound was calculated based on the intracellular uptake amount of labeled uric acid ([^14C] uric acid) transported by GLUT9.
1. Preparation of Human GLUT9 Expression Plasmid
Human GLUT9S coding region (NM_001001290.1) was amplified by PCR method using PrimeSTAR MAX DNA Polymerase (Takara Bio). The obtained PCR product was subjected to agarose gel electrophoresis, and the desired size of PCR product was purified by QIAquick Gel Extraction Kit (QIAGEN). Next, pEBMulti-Bsd vector (Wako Pure Chemical Industries, Ltd.) was subjected to digestion using restriction enzymes SalI and EcoR V, and linked to the PCR product containing GLUT9S by In-Fusion reaction using In-Fusion HD Cloning Kit (Takara Bio). XL10-Gold Competent Cells (Agilent Technologies) were transformed in In-Fusion reaction solution, and the obtained transfectants were cultured with shaking overnight in LB medium to which Blasticidin S HCl (Thermo Fisher Scientific) was added. Human GLUT9 expression plasmid DNA was prepared from the collected transfectants using EndoFree Plasmid Kit (Takara Bio).
2. Establish of Human GLUT9 Stably Expressing Cell
HEK293T cells (American Type Culture Collection, DS Pharma Biomedical) were seeded in a 6 well plate at 1×10^6 cells/well. Next day, human GLUT9 expression plasmid was transfected by using Lipofectamine 3000 Reagent (Thermo Fisher Scientific) as follows. Lipofectamine 3000 Reagent (5 μL) was diluted with Opti-MEM (125 μL, Thermo Fisher Scientific). Separately, plasmid DNA (2.5 μg) was diluted with Opti-MEM (125 μL), and P3000 Reagent (5 μL) was added thereto. The obtained solution was mixed with the previously obtained diluted solution, and the mixture was left stand at room temperature for 5 min, and added to the cells. Next day, the transfected cells were diluted and reseeded in a 6 well plate at 4×10^5 cells/well, and drug selection was performed in the presence of 30 μg/mL of Blasticidin S HCl, and thereby, Blasticidin-resistant human GLUT9 stably expressing cell line was established. Mock cells were prepared by introducing pEBMulti-Bsd vector into HEK293T cells in a similar manner.
3. Preparation of Uricase/Hyper Expression Plasmid
Uricase/Hyper expression plasmid was prepared by linking the coding regions of Aspergillus Flavus-derived uricase gene and pHyPer-Cyto vector (Evrogen) HyPer gene to the pEBMulti-Hyg vector (Wako Pure Chemical Industries, Ltd.) and then introducing it. The preparation method was performed by reference to Gout and Nucleic Acid Metabolism 2013, 37(2), 93-101, and seven repeated linker sequence of glycine-glycine-glycine-serine was prepared herein.
4. Preparation of Human GLUT9-Uricase/Hyper Coexpressing Cell
Human GLUT9 stably expressing cells were seeded at 3.6×10^7 cells per 225 cm^2 flask. Next day, Uricase/Hyper expression plasmid was transfected by using Lipofectamine 3000 Reagent as follows. Lipofectamine 3000 Reagent (40 μL) was diluted with Opti-MEM (750 μL). Separately, plasmid DNA (20 μg) was diluted with Opti-MEM (750 μL), and P3000 Reagent (40 μL) was added thereto. The obtained solution was mixed with the previously obtained diluted solution, and the mixture was left stand at room temperature for 5 min, and added to the cells. Next day, transfected cells were collected to prepare human GLUT9-Uricase/Hyper coexpressing cells.
5. Evaluation of GLUT9 Inhibitory Activity
Uricase/Hyper transiently-transfected human GLUT9 stably expressing cells or mock cells (blank) were seeded in a 96 well plate (Corning) at 1.6×10^5 cells/well, and cultured overnight at 37° C., 5% CO2. D-MEM/high glucose (Wako Pure Chemical Industries, Ltd.) containing 10% Fetal Bovine Serum (Lifetechnology) and 100 units/ml penicillin/100 μg/ml streptomycin (GIBCO) was used as a medium.
For the compound `CCCCc1cnc(-c2ccc(C(=O)O)cc2)c(-c2ccc(C(=O)O)cc2)n1` [Example 7], the inhibition at 10 µM was 9%.
Consider `CCCCc1cnc(-c2ccc(OC)c(C(=O)O)c2)c(-c2ccc(C(=O)O)cc2)n1` [Example 15], for which the inhibition at 10 µM worked out at 5%.
Turning to `CCCCc1cnc(-c2ccc(C(=O)N(C)C)cc2)c(-c2ccc(C(=O)O)cc2)n1` [Example 22], the inhibition at 10 µM was determined as 9%.
The same measure, in the same setting: with `CCCCc1cnc(-c2ccc(O)cc2)c(-c2ccc(C(=O)O)cc2)n1` [Example 33] the figure was 28%; with `COc1ccc(-c2ncc(CC3CCCCC3)cc2-c2ccc(C(=O)O)cc2)cc1` [Example 47], 47%; with `COc1ccc(-c2ncc(C3CCOCC3)cc2-c2ccc(C(=O)O)cc2)cc1` [Example 60], 45%.

Still in this experiment, the particulars now being: final 300 μM uric acid, 6 min, human GLUT9 stably expressing HEK293T cells, read-out: humans GLUT9 inhibitory activity (IC50 value (μM)).
As to `CCCCc1cnc(-c2ccc(OC)cc2)c(-c2ccc(C(=O)O)cc2)n1` [Example 1], the IC50 came to 0.0807 µM.
As to `CCCCc1cnc(-c2ccc(OC)cc2C)c(-c2ccc(C(=O)O)cc2)n1` [Example 2], the IC50 amounted to 0.946 µM.
Take `CCCCc1cnc(-c2ccc(OC)cc2F)c(-c2ccc(C(=O)O)cc2)n1` [Example 3]: the IC50 stood at 0.134 µM.
As for `CCCCc1cnc(-c2ccc(OC)cc2)c(-c2ccc(C(=O)O)cc2F)n1` [Example 5], the IC50 came out at 0.0626 µM.
`CCCCc1cnc(-c2ccc(OC)cc2)c(-c2ccc(C(=O)O)c(OC)c2)n1` [Example 6]: the IC50 turned out to be 0.141 µM.
As for `CCCCc1cnc(-c2ccc(C#N)cc2)c(-c2ccc(C(=O)O)cc2)n1` [Example 9], the IC50 turned out to be 0.483 µM.
With `CCCCc1cnc(-c2ccc(F)cc2)c(-c2ccc(C(=O)O)cc2)n1` [Example 10], the IC50 was found to be 1.78 µM.
In the case of `CCCCc1cnc(-c2ccc(OC)c(F)c2)c(-c2ccc(C(=O)O)cc2)n1` [Example 11], the IC50 was found to be 0.0659 µM.
Take `COc1ccc(-c2ncc3c(c2-c2ccc(C(=O)O)cc2)CCCC3)cc1` [Example 12]: the IC50 is 5.06 µM.
Still for that read-out and setting: with `CCCCc1cnc(-c2ccc(OC)cc2)c(-c2ccc(C(=O)O)c(F)c2)n1` [Example 14] the figure was 0.0914 µM; with `CCCCc1cnc(-c2ccc(OC)c(Cl)c2)c(-c2ccc(C(=O)O)cc2)n1` [Example 16], 0.0819 µM; with `CCCCc1cnc(-c2ccc(OC)c(C#N)c2)c(-c2ccc(C(=O)O)cc2)n1` [Example 17], 0.692 µM.
Same read-out and setting: with `CCCCc1cnc(-c2ccc(OC)cc2)c(-c2ccc(C(=O)O)cc2)c1` [Example 18] the figure was 0.0942 µM.
For `CCCCc1cnc(-c2ccc(OC)c(C(F)(F)F)c2)c(-c2ccc(C(=O)O)cc2)n1` [Example 19], the IC50 was 3.07 µM.
Same read-out and setting: with `COCCCCc1cnc(-c2ccc(OC)cc2)c(-c2ccc(C(=O)O)cc2)n1` [Example 20] the figure was 0.12 µM; with `CCCCc1cnc(-c2cc(F)c(OC)c(F)c2)c(-c2ccc(C(=O)O)cc2)n1` [Example 21], 0.0607 µM.
On the same count and under the same terms, with `CCCCc1cnc(-c2ccc(C(F)(F)F)c(OC)c2)c(-c2ccc(C(=O)O)cc2)n1` [Example 23] the figure was 0.992 µM; with `CCCCc1cnc(-c2ccc(C(F)(F)F)c(F)c2)c(-c2ccc(C(=O)O)cc2)n1` [Example 24], 0.134 µM; with `CCCCc1cnc(-c2ccc(C(F)(F)F)c(C)c2)c(-c2ccc(C(=O)O)cc2)n1` [Example 26], 0.154 µM.
On to `CCCCc1cnc(-c2ccc(C(F)(F)F)c(C(F)(F)F)c2)c(-c2ccc(C(=O)O)cc2)n1` [Example 28], for which the IC50 is 4.25 µM.
For the compound `CCCCc1cnc(-c2ccc(Cl)cc2)c(-c2ccc(C(=O)O)cc2)n1` [Example 31], the IC50 stood at 0.134 µM.
On the same count and under the same terms, with `CCCCc1cnc(-c2ccc3c(c2)CCO3)c(-c2ccc(C(=O)O)cc2)n1` [Example 32] the figure was 0.0888 µM; with `CCCCc1cnc(-c2ccc(C3CC3)cc2)c(-c2ccc(C(=O)O)cc2)n1` [Example 34], 0.124 µM; with `COCCCCc1cnc(-c2cc(F)c(OC)c(F)c2)c(-c2ccc(C(=O)O)cc2)n1` [Example 35], 0.119 µM.
On the same count and under the same terms, with `CCCc1cnc(-c2ccc(C(F)(F)F)cc2)c(-c2ccc(C(=O)O)cc2)n1` [Example 36] the figure was 0.189 µM; with `CCCc1cnc(-c2ccc(OC)cc2)c(-c2ccc(C(=O)O)cc2)n1` [Example 37], 0.111 µM.
For the compound `CCCCc1cnc(-c2ccc(OC)cc2)c(-c2ccc(CC(=O)O)cc2)n1` [Example 38], the IC50 was determined as 0.865 µM.
For `CCCCc1cnc(-c2ccc(OC)cc2)c(-c2ccc(C(=O)O)cc2)c1C` [Example 39], the IC50 was found to be 1.45 µM.
Still for that read-out and setting: with `COc1ccc(-c2ncc(CCC3CCCCC3)cc2-c2ccc(C(=O)O)cc2)cc1` [Example 42] the figure was 6.5 µM.
In the case of `COc1ccc(-c2ncc(CCCOCCO)cc2-c2ccc(C(=O)O)cc2)cc1` [Example 43], the IC50 worked out at 7.13 µM.
For `COc1ccc(-c2ncc(CCCC3(O)CCC3)cc2-c2ccc(C(=O)O)cc2)cc1` [Example 44], the IC50 is 1.65 µM.
In the case of `CCCCc1cnc(-c2ccc(OC)cc2)c(-c2ccc(C(C)(C)C(=O)O)cc2)n1` [Example 48], the IC50 was 7.12 µM.
Same read-out and setting: with `CCCCc1cnc(-c2ccc3c(c2)CCCO3)c(-c2ccc(C(=O)O)cc2)n1` [Example 49] the figure was 0.201 µM; with `CCCCc1cnc(-c2ccc3c(c2)OCCO3)c(-c2ccc(C(=O)O)cc2)n1` [Example 50], 0.133 µM; with `COc1ccc(-c2ncc(CCCCO)cc2-c2ccc(C(=O)O)cc2)cc1` [Example 51], 0.962 µM.
For `COc1ccc(-c2ncc(CCC3CC3)cc2-c2ccc(C(=O)O)cc2)cc1` [Example 52], the IC50 was determined as 0.119 µM.
`CCCCc1cnc(-c2ccc(C(C)(C)C)cc2)c(-c2ccc(C(=O)O)cc2)n1` [Example 55]: the IC50 was 3.99 µM.
For `CCc1cnc(-c2ccc(OC)cc2)c(-c2ccc(C(=O)O)cc2)c1` [Example 56], the IC50 came to 0.18 µM.
For the compound `COc1ccc(-c2ncc(C(C)C)cc2-c2ccc(C(=O)O)cc2)cc1` [Example 57], the IC50 was found to be 0.344 µM.
As for `COc1ccc(-c2ncc(CC(C)C)cc2-c2ccc(C(=O)O)cc2)cc1` [Example 58], the IC50 was found to be 0.052 µM.
As to `COc1ccc(-c2ncc(C3CCCC3)cc2-c2ccc(C(=O)O)cc2)cc1` [Example 59], the IC50 came to 0.132 µM.
Turning to `COc1ccc(-c2ncc(CCCO)cc2-c2ccc(C(=O)O)cc2)cc1` [Example 61], the IC50 amounted to 5.59 µM.
Regarding `COc1ccc(-c2ncc(CCC(F)(F)F)cc2-c2ccc(C(=O)O)cc2)cc1` [Example 62], the IC50 stood at 0.127 µM.
Still for that read-out and setting: with `COc1ccc(-c2ncc(CCC3CCCC3)cc2-c2ccc(C(=O)O)cc2)cc1` [Example 63] the figure was 0.659 µM; with `CCCCc1cnc(-c2cc(F)c(OC)c(Cl)c2)c(-c2ccc(C(=O)O)cc2)n1` [Example 64], 0.0987 µM.
`CCCCc1cnc(-c2cc(Cl)c(OC)c(Cl)c2)c(-c2ccc(C(=O)O)cc2)n1` [Example 65]: the IC50 was 0.0946 µM.
As for `CCCc1cnc(-c2cc(F)c(OC)c(F)c2)c(-c2ccc(C(=O)O)cc2)n1` [Example 66], the IC50 was 0.077 µM.
Still for that read-out and setting: with `CCCCc1cnc(-c2ccc(OC)cc2)c(-c2cc(F)c(C(=O)O)c(F)c2)n1` [Example 69] the figure was 0.856 µM.
Regarding `CCCCc1cnc(-c2ccc(OC)cc2)c(-c2ccc(OCC(=O)O)cc2)n1` [Example 70], the IC50 was 1.67 µM.
In the case of `CCCCc1cnc(-c2ccc(OC)cc2)c(-c2ccc(CCC(=O)O)cc2)n1` [Example 71], the IC50 worked out at 0.132 µM.

The values are drawn from patent US10752596B2, “Nitrogen-containing heteroaryl compound and pharmaceutical use thereof” (JAPAN TOBACCO INC., priority 2017, dated 2020).
